Key:
Type in all cases: cell-based
hCNT3 (SLC28A3) = molecular target: T1, hCNT3 (SLC28A3) (Homo sapiens, UniProt Q9HAS3); experiment: Inhibition of [^3H]uridine uptake in yeast cells producing recombinant hCNT3
T1 construct: expressed in transfected cells; host or cells: Saccharomyces cerevisiae
T1 sequence (Q9HAS3 1-691): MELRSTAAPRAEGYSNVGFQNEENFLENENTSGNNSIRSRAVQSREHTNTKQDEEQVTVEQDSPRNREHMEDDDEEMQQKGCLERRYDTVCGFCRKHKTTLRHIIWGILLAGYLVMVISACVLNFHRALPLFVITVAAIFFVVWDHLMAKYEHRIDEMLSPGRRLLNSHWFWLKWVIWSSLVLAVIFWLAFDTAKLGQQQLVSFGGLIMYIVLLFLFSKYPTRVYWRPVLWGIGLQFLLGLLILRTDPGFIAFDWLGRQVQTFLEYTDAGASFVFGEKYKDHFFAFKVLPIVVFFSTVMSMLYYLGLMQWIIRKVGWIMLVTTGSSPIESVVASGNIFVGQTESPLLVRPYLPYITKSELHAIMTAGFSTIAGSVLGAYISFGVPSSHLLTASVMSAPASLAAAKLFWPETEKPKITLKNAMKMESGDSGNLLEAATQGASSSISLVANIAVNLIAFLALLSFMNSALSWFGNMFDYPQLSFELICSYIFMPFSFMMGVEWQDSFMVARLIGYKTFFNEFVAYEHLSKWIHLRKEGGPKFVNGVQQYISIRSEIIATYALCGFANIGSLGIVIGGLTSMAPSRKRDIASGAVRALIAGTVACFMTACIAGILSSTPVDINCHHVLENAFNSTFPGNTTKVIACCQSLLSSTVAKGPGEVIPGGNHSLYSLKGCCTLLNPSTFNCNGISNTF
Procedure: (§1) The interaction of 2-nitroimidazole sugars with nucleoside transporters was determined by ability of the 2-nitroimidazole sugars to inhibit [^3H]uridine uptake in yeast cells producing recombinant human nucleoside transporters and results expressed as IC50 values.
(§2) Saccharomyces cerevisiae yeast was separately transformed with plasmids (pYPhENT1, pYPhENT2, pYPhCNT1, pYPhCNT2, or pYPhCNT3) encoding hNTs (hENT1, hENT2, hCNT1, hCNT2, or hCNT3, respectively) as described elsewhere. Uptake of 1 µmol/L [^3H]uridine (Moravek Biochemicals) into yeast was measured as previously described using a semi-automated cell harvester (Micro96 HARVESTER; Skatron Instruments, Tranby, Norway). Yeast was incubated at room temperature with 1 µmol/L [^3H]uridine in yeast growth media (pH 7.4) in the presence or absence (uninhibited controls) of graded concentrations (0–3 mM) of test compounds. The following compounds were used for transporter experiments: FAZA, β-FAZA, α-FAZDR, β-FAZDR. Uridine self-inhibition was used to determine maximum inhibition of mediated transport. Concentration–effect curves were subjected to nonlinear regression analysis using Prism software (version 4.03; GraphPad Software Inc.) to obtain the concentration of test compound that inhibited uridine uptake by 50%, relative to that of untreated cells (IC50 values). Each IC50 value determination was conducted with nine concentrations and four replicates per concentration and experiments were repeated two to three times.

hENT1 (SLC29A1) = molecular target: T2, hENT1 (SLC29A1) (Homo sapiens, UniProt Q99808); experiment: Inhibition of [^3H]uridine uptake in yeast cells producing recombinant hENT1
T2 construct: expressed in transfected cells; host or cells: Saccharomyces cerevisiae
T2 sequence (Q99808 1-456): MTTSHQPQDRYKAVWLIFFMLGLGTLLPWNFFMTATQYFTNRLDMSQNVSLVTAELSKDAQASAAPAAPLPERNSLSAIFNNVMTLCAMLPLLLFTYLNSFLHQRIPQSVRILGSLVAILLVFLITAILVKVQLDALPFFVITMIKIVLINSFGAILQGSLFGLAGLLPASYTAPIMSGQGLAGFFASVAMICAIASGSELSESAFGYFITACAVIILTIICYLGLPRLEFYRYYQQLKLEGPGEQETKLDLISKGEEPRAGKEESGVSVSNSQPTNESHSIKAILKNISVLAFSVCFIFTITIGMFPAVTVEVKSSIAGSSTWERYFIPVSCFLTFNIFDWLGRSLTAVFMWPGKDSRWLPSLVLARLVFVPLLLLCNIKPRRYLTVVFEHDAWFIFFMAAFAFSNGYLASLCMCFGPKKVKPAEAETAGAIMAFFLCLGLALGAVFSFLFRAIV
Procedure: as §1, §2

hCNT2 (SLC28A2) = molecular target: T3, hCNT2 (SLC28A2) (Homo sapiens, UniProt O43868); experiment: Inhibition of [^3H]uridine uptake in yeast cells producing recombinant hCNT2
T3 construct: expressed in transfected cells; host or cells: Saccharomyces cerevisiae
T3 sequence (O43868 1-658): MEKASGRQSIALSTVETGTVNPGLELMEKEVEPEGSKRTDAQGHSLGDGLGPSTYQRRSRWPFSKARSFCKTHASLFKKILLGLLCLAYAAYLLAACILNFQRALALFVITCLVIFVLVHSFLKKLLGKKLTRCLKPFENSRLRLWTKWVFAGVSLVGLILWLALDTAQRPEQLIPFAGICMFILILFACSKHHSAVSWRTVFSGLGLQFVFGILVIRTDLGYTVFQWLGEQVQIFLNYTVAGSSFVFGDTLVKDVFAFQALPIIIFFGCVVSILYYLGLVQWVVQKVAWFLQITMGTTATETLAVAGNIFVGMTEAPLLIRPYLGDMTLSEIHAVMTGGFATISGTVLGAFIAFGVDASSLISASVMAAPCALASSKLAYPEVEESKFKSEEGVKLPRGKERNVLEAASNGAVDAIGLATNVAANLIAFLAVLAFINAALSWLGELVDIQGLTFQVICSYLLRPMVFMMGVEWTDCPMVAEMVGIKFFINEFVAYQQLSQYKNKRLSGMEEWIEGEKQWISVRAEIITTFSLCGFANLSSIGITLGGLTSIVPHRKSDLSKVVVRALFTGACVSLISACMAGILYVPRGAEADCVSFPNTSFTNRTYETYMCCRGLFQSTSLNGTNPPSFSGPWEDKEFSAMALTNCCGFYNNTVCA
Procedure: as §1, §2

hENT2 (SLC29A2) = molecular target: T4, hENT2 (SLC29A2) (Homo sapiens, UniProt Q14542); experiment: Inhibition of [^3H]uridine uptake in yeast cells producing recombinant hENT2
T4 construct: expressed in transfected cells; host or cells: Saccharomyces cerevisiae
T4 sequence (Q14542 1-456): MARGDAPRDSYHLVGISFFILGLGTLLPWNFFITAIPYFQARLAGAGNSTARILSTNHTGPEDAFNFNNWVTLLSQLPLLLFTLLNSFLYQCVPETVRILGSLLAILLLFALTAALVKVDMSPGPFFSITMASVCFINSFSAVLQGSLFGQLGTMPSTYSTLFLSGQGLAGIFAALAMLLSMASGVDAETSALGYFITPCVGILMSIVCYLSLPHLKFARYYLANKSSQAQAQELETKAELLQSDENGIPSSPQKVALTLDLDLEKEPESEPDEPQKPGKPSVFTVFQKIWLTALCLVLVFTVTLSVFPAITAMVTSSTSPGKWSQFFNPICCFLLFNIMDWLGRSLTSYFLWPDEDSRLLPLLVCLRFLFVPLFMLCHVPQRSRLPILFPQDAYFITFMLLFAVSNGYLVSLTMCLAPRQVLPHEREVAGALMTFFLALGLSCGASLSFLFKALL
Procedure: as §1, §2

hCNT1 (SLC28A1) = molecular target: T5, hCNT1 (SLC28A1) (Homo sapiens, UniProt O00337); experiment: Inhibition of [^3H]uridine uptake in yeast cells producing recombinant hCNT1
T5 construct: expressed in transfected cells; host or cells: Saccharomyces cerevisiae
T5 sequence (O00337 1-649): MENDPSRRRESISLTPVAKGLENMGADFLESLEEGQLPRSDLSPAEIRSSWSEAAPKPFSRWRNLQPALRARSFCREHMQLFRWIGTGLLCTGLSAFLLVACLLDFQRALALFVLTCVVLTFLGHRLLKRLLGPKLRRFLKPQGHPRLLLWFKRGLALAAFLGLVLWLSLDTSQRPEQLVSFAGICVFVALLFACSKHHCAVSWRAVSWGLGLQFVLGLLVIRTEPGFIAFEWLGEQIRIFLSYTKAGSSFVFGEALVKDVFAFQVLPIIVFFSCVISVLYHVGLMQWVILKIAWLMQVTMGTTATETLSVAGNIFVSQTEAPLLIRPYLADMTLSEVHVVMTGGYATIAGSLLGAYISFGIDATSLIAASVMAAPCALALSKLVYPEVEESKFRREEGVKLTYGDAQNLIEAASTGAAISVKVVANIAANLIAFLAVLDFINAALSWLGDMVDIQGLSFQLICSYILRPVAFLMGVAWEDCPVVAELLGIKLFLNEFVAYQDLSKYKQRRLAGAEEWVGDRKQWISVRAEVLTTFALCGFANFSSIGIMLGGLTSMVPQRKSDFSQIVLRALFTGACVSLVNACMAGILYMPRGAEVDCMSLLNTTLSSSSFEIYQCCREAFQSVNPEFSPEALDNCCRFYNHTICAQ
Procedure: as §1, §2

- IC50 (hCNT3 (SLC28A3)): 2310 ± 352 µM
- IC50 (hENT1 (SLC29A1)): 2070 ± 50 µM
- IC50 (hCNT2 (SLC28A2)): > 3000 µM
- IC50 (hENT2 (SLC29A2)): > 3000 µM
- IC50 (hCNT1 (SLC28A1)): > 3000 µM
SMILES: O=[N+]([O-])c1nccn1[C@@H]1O[C@H](CF)[C@@H](O)[C@@H]1O [β-FAZA, 1-(5′-Deoxy-5′-fluoro-β-D-arabinofuranosyl)-2-nitroimidazole]
